Results from ChEMBL document CHEMBL1122322, “Synthesis and antileishmanial activity of 6-methoxy-4-methyl-N-[6-(substituted-1-piperazinyl)hexyl]-8-quinolinamines and related compounds” (1983).
Calls of active or inactive are those of the source. No cut-off for these calls is given here.

Experiments:
Leishmania donovani [1] = assay: Antileishmanial activity against Leishmania donovani infections in hamsters (at 13 mg/kg).; type: functional
Leishmania donovani [2] = assay: Antileishmanial activity against Leishmania donovani infections in hamsters (at 52 mg/kg).; type: functional
Leishmania donovani [3] = assay: Glucantime (meglumine antimoniate) index (G index) against Leishmania donovani infections in hamsters.; type: functional
Leishmania donovani [4] = assay: (§1) Antileishmanial activity against Leishmania donovani infections in hamsters (208 mg/kg); type: functional, organism-based
Leishmania donovani [5] = assay: as §1; type: functional
Leishmania donovani [6] = assay: Antileishmanial activity against Leishmania donovani infections in hamsters (3.25 mg/kg); type: functional
Leishmania donovani [7] = assay: Antileishmanial activity against Leishmania donovani infections in hamsters (0.81 mg/kg); type: functional
Leishmania donovani [8] = assay: Antileishmanial activity against Leishmania donovani infections in hamsters (0.2 mg/kg); type: functional
Leishmania donovani [9] = assay: Antileishmanial activity against Leishmania donovani infections in hamsters (0.05 mg/kg); type: functional
Leishmania donovani [10] = assay: Antileishmanial activity against Leishmania donovani infections in hamsters (208 mg/kg): Inactive; type: functional, organism-based
Leishmania donovani [11] = assay: Antileishmanial activity against Leishmania donovani infections in hamsters (104 mg/kg); type: functional, organism-based
Leishmania donovani [12] = assay: Antileishmanial activity against Leishmania donovani infections in hamsters (3.25 mg/kg); NA means inactive; type: functional, organism-based

Molecule | Suppression (Leishmania donovani [1]) [%] | Suppression (Leishmania donovani [2]) [%] | G index (Leishmania donovani [3]) | Suppression (Leishmania donovani [4]) | Suppression (Leishmania donovani [6]) [%] | Suppression (Leishmania donovani [7]) [%] | also measured
COc1cc(NCCCCCCN2CCN(CCCN(C)C)CC2)c2nccc(C)c2c1.Cl | 65.8 | 99.7 | 2 | Toxic | – | – | –
COc1cc(NCCCCCCN2CCN(C)CC2)c2nccc(C)c2c1.Cl | 99.7 | 100 | 26 | – | 99.3 | 64.7 | Suppression (Leishmania donovani [5]): 99.7%
COc1cc(NCCCCCCN2CCN(CCC(C)C)CC2C)c2nccc(C)c2c1.Cl (centres undefined) | 98.9 | 99.8 | 72 | Toxic | 100 | 96.6 | Suppression (Leishmania donovani [8]): 57.3%
CCS(=O)(=O)N1CCN(CCCCCCNc2cc(OC)cc3c(C)ccnc23)CC1 | 94.8 | 99.8 | 4 | – | – | – | Suppression (Leishmania donovani [5]): 99.9%
COc1cc(NCCCCCCN2CC(C)NC(C)C2)c2nccc(C)c2c1 (centres undefined) | 100 | 100 | 72 | Toxic | 99.8 | 97.9 | Suppression (Leishmania donovani [8]): 1.3%
CCS(=O)(=O)CCN1CCN(CCCCCCNc2cc(OC)cc3c(C)ccnc23)CC1 | 99.7 | 99.5 | 19 | – | 99.6 | 21.1 | Suppression (Leishmania donovani [5]): 99.9%
COc1cc(NCCCCCCN2CCN(CC(O)CO)CC2)c2nccc(C)c2c1.Cl (centres undefined) | 100 | 99.9 | 57 | Toxic | 99.98 | 98.5 | Suppression (Leishmania donovani [8]): 25.8%
COc1cc(NCCCCCCNC(C)C)c2nc(C)cc(C)c2c1.Cl | – | – | 42 | – | – | – | –
COc1cc(NCCCCCCN2CCN(CCO)CC2)c2nccc(C)c2c1Oc1cccc(C(F)(F)F)c1.Cl | 98 | 99.1 | – | Toxic | – | – | –
COc1cc(NCCCCCCN2C[C@@H](C)S[C@@H](C)C2)c2nccc(C)c2c1 | 81.1 | 93.7 | 1.5 | Toxic | – | – | –
COc1cc(NCCCCCCN2CCS(=O)(=O)CC2)c2nccc(C)c2c1 | 35 | 67.6 | 0.5 | – | – | – | Suppression (Leishmania donovani [5]): 100%
CCN(CC)CCCCCCNc1cc(OC)cc2c(C)ccnc12 [SITAMAQUINE] | 100 | 100 | 474 | Toxic | – | 100 | Suppression (Leishmania donovani [8]): 99.6%; Suppression (Leishmania donovani [9]): 83.7%
COc1cc(NCCCCCCN2CCCN(C)CC2)c2nccc(C)c2c1 | 99.8 | 99.4 | 12 | – | 91.2 | 61 | Suppression (Leishmania donovani [5]): 98.6%
CCCCCCCCCCCCN1CCN(CCCCCCNc2cc(OC)cc3c(C)ccnc23)CC1 | – | – | – | – | – | – | Suppression (Leishmania donovani [10]): inactive
COc1cc(NCCCCCCN2CCN(CC(C)O)CC2)c2nccc(C)c2c1.Cl (centres undefined) | 99.1 | 99.7 | 143 | Toxic | 99.4 | 99.8 | Suppression (Leishmania donovani [8]): 75.7%; Suppression (Leishmania donovani [9]): 35%
COc1cc(NCCCCCCNC(C)C)c2nccc(C)c2c1Oc1cccc(C(F)(F)F)c1 | 98.6 | – | – | Toxic | – | – | –
COc1cc(NCCCCCCN2CCNc3ccccc32)c2nccc(C)c2c1 | – | – | – | – | – | – | Suppression (Leishmania donovani [10]): inactive
COc1cc(NCCCCCCN2CCN(c3ccc(Cl)c(Cl)c3)CC2)c2nccc(C)c2c1 | – | – | <1 | – | – | – | Suppression (Leishmania donovani [5]): 77.8%
COc1cc(NCCCCCCN2CC(C)OC(C)C2)c2nccc(C)c2c1.Cl (centres undefined) | 99.1 | 99.1 | 24 | Toxic | 98.7 | 61 | –
COc1cc(NCCCCCCN2CCN(CCCCCCNc3cc(OC)cc4c(C)ccnc34)CC2)c2nccc(C)c2c1 | – | – | – | – | – | – | Suppression (Leishmania donovani [10]): inactive
COc1cc(NCCCCCCN2CCN(C3CCCCC3)CC2)c2nccc(C)c2c1 | – | – | – | – | – | – | Suppression (Leishmania donovani [10]): inactive
COc1cc(NCCCCCCN2CC[S+]([O-])CC2)c2nccc(C)c2c1.Cl | 84.8 | 92.8 | 3 | Toxic | – | – | –

Molecule | Suppression (Leishmania donovani [1]) [%] | Suppression (Leishmania donovani [2]) [%] | G index (Leishmania donovani [3]) | Suppression (Leishmania donovani [4]) | Suppression (Leishmania donovani [6]) [%] | Suppression (Leishmania donovani [7]) [%] | also measured
COc1cc(NCCCCCCN2CCN(CCO)CC2)c2nccc(C)c2c1.Cl | 100 | 100 | 104 | – | 97 | 85.8 | –
COc1cc(NCCCCCCN2CCSCC2)c2nccc(C)c2c1.Cl | 99.8 | 100 | 6.4 | Toxic | 59.9 | 27.61 | –
COc1cc(NCCCCCCN2CCN(CCCO)CC2)c2nccc(C)c2c1 | 96.3 | 97.8 | 38 | Toxic | – | – | –
CCN(CC)CCCCCCNc1cc(OC)c(Oc2cccc(C(F)(F)F)c2)c2c(C)ccnc12 | 99.6 | 100 | – | Toxic | – | – | –
CCCN(CCC)C(=O)N1CCN(CCCCCCNc2cc(OC)cc3c(C)ccnc23)CC1.Cl | 89.7 | 99.4 | 6 | – | – | – | Suppression (Leishmania donovani [5]): 100%
COc1cc(NCCCCCCN2CCN(C(c3ccccc3)c3ccc(Cl)cc3)CC2)c2nccc(C)c2c1.Cl.Cl (centres undefined) | 99.4 | 96.8 | 23 | Toxic | 100 | 70 | –
CCN(CC)CC(O)CN1CCN(CCCCCCNc2cc(OC)cc3c(C)ccnc23)CC1.Cl (centres undefined) | 99.7 | 99.9 | 6 | Toxic | 32.6 | – | –
COc1cc(NCCCCCCN2CCN(C(=O)N(c3ccccc3)c3ccccc3)CC2)c2nccc(C)c2c1 | – | – | – | – | – | – | Suppression (Leishmania donovani [10]): inactive
CC/N=C(\S)N1CCN(CCCCCCNc2cc(OC)cc3c(C)ccnc23)CC1.Cl | – | – | 2 | – | – | – | –
COc1cc(NCCCCCCN2C[C@H](C)S[C@@H](C)C2)c2nccc(C)c2c1 | 21.4 | 65 | 0.4 | – | – | – | Suppression (Leishmania donovani [5]): 98.2%
CCNC(=O)N1CCN(CCCCCCNc2cc(OC)cc3c(C)ccnc23)CC1.Cl | 99.2 | 100 | 9 | Toxic | 84.1 | 35.9 | –
COc1cc(NCCCCCCN2CCN(c3ccccn3)CC2)c2nccc(C)c2c1 | 95.9 | 97.8 | 5 | – | 24.4 | 18.9 | Suppression (Leishmania donovani [5]): 97.5%
COc1cc(NCCCCCCN2CCN(C(=O)OCc3ccccc3)CC2)c2nccc(C)c2c1.Cl | 54.6 | 98 | 2.3 | Toxic | – | – | –
COc1cc(NCCCCCCN2CCN(C(=O)N3CCCC3)CC2)c2nccc(C)c2c1.Cl | 100 | 99.8 | 2.3 | – | 98.8 | 4.6 | Suppression (Leishmania donovani [5]): 100%
CCC(C)NCCCCCCNc1cc(OC)cc2c(C)cc(C)nc12.Cl (centres undefined) | – | – | 28 | – | – | – | –
CCN(CC)CCCCCCNc1cc(OC)cc2c(C)cc(C)nc12.Cl | – | – | 32 | – | – | – | –
CCC(CC)C(=O)N1CCN(CCCCCCNc2cc(OC)cc3c(C)ccnc23)CC1.Cl | 56.6 | 99.3 | 2.6 | – | – | – | Suppression (Leishmania donovani [5]): 98.6%
CCN(CC)C(=O)N1CCN(CCCCCCNc2cc(OC)cc3c(C)ccnc23)CC1.Cl | 98.8 | 98.6 | 8 | Toxic | 72.2 | – | –
MEGLUMINE ANTIMONATE | 42 | – | 1 | – | – | – | Suppression (Leishmania donovani [11]): 91.3%; NA (Leishmania donovani [12]): inactive
CCOC(=O)N1CCN(CCCCCCNc2cc(OC)cc3c(C)ccnc23)CC1 | 99.9 | 99.9 | 33 | – | 99.1 | 23.9 | Suppression (Leishmania donovani [5]): 99.5%
COc1cc(NCCCCCCN2CCN(CCOC(c3ccccc3)c3ccccc3)CC2)c2nccc(C)c2c1.Cl | 83.5 | 99.5 | 5 | – | – | – | Suppression (Leishmania donovani [5]): 100%
COc1cc(NCCCCCCN2CCN(S(=O)(=O)c3ccccc3)c3ccccc32)c2nccc(C)c2c1 | – | – | – | – | – | – | Suppression (Leishmania donovani [10]): inactive
